Experimental data as given in patent US20260174707A1, “USE OF GNRH ANTAGONIST IN REGULATION AND CONTROL OF ESTRUS OF MAMMAL” (priority 2022, published 2026).
Marks after values point to notes of the source that are not given here. Where a SMILES comes first, the peptide text is derived from it. [ ]: non-standard residue; d: D form. The star is where a group is joined. dPhe(4-NHCONH2) = NC(=O)Nc1ccc(C[C@@H](N)C(=O)O)cc1; Dihydroorotyl(S) = O=C1C[C@@H](C(=O)*)NC(=O)N1; dPhe(4-Cl) = N[C@H](Cc1ccc(Cl)cc1)C(=O)O; Phe(4-NH2) = Nc1ccc(C[C@H](N)C(=O)O)cc1; d2Nal = N[C@H](Cc1ccc2ccccc2c1)C(=O)O; Lys(iPr) = CC(C)NCCCC[C@H](N)C(=O)O; d3Pal = N[C@H](Cc1cccnc1)C(=O)O

Key:
Type in all cases: in vivo
[1] = test system: male dogs; experiment: Inhibiting effect on male dogs (serum testosterone, scrotum circumference, sexual behavior); settings: 1.5 mg/kg subcutaneous
Protocol: Adult healthy male dogs with normal reproductive capacity were selected and divided into an experimental group and a control group. Each group of the animals was treated with subcutaneous injections, male dogs in the control group were injected with normal saline, and male dogs in the experimental group were injected with 1.5 mg/kg body weight of Degarelix, the treated animals in each group were fed and observed in the same way. Blood was collected from the animals regularly to measure and record the concentration of testosterone in serum (blood was collected and detected before the injection of drugs, and 1 h, 2 h, 4 h, 6 h, 8 h, 24 h, 48 h, 72h, 120 h and 168 h after the injection of drugs, and after that, the blood was collected every 168 h (1 week) until the end of the experiment), and scrotum circumference of male animals was measured and recorded regularly, sexual behavior of the male animals was observed and recorded, and compared with that of male animals in the control group.

[2] = test system: sowpigs; experiment: Oestrus inhibition in sowpigs (oestrus performance observed); settings: intramuscular injection once
Protocol: Thirty healthy adult sowpigs were selected and divided into a control group and Degarelix experimental groups, with 6 sowpigs in each group. The four Degarelix experimental groups were intramuscularly injected with different doses of Degarelix, namely 10 μg/kg body weight, 20 μg/kg body weight, 40 μg/kg body weight and 160 μg/kg body weight, respectively. The control group was intramuscularly injected with normal saline, and the oestrus performance (e.g., vulva performance and static reaction) of the sowpigs was observed and recorded to determine whether the sowpigs were in oestrus, and the time to restore oestrus after administration was recorded.

[3] = test system: female mice; experiment: Oestrus inhibition in female mice (daily vaginal smear); settings: only subcutaneous injection once
Protocol: Twenty-four 6-week-old female mice were selected and divided into 4 groups, with 6 mice in each group. The female mice in the negative control group were subcutaneously injected with normal saline, the female mice in the Abarelix group were subcutaneously injected with a dosage of 2 mg/kg/day for 8 consecutive days, the female mice in the Cetrorelix group were subcutaneously injected with a dosage of 2 mg/kg/day for 8 consecutive days, and the female mice in the Degarelix group were subcutaneously injected once with a dose of 2 mg/kg. After administration, vaginal smear experiments were performed on female mice every day to detect the stage of the oestrus cycle of female mice in each group. […] Thirty-two 6-week-old female mice were selected and divided into 4 groups, with 8 mice in each group. The female mice in the negative control group were subcutaneously injected with normal saline, and the female mice in the three Degarelix groups were subcutaneously injected with different dosages (0.4 mg/kg, 0.6 mg/kg and 1.0 mg/kg) of Degarelix once. After administration, vaginal smear experiments were performed on female mice every day to detect the oestrous condition.

[4] = test system: female dogs; experiment: Inhibiting effect on female dogs in proestrus; settings: 1.5 mg/kg subcutaneous
Protocol: Healthy female dogs in proestrus (the proestrus period was less than 3 days) were selected and divided into an experimental group and a control group. Each group of the animals was treated with subcutaneous injections, the female dogs in control group were injected with normal saline, and the female dogs in experimental group were injected with 1.5 mg/kg body weight of Degarelix, each group of the treated animals was fed and observed in the same way to detect the oestrus of the female dogs.

[5] = test system: female mice; experiment: Oestrus synchronization of female mice (Degarelix, then PMSG and HCG); settings: 1.0 mg/kg sc; 5 units PMSG ip on 14th day; 5 units HCG ip after 46 hours
Protocol: It was discovered from the oestrus inhibition experiments that a dose of 1.0 mg/kg can inhibit oestrus of female mice for at least 15 days. Six 6-week-old female mice were selected for further oestrus synchronization experiments. The specific method was as follows: the female mice were subcutaneously injected 1.0 mg/kg of Degarelix, and intraperitoneally injected 5 units of PMSG on the 14th day after administration, and intraperitoneally injected 5 units of HCG after 46 hours, and then the oestrus of the female mice was detected.

[6] = test system: gilts; experiment: Oestrus synchronization of gilts (inhibitor, then PMSG); settings: 1,000 units PMSG im on 20th day
Protocol: Comparison of experiments of administering Degarelix and altrenogest in achieving oestrus synchronization in gilts was performed. Twelve healthy adult gilts were selected and divided into two groups, namely an altrenogest group and a Degarelix group, with 6 gilts in each group. Among them, gilts in the altrenogest group were fed 20 mg of altrenogest every day for 18 consecutive days, while gilts in the Degarelix group were intramuscularly injected with 15 μg/kg body weight of Degarelix only on the first day. Both groups of gilts were intramuscularly injected with 1,000 units of PMSG on the 20th day after the first administration, then test whether the gilts in different treatment groups can achieve the estrus synchronization.

[7] = gilts, 15 μg/kg im only on first day
[8] = gilts fed 20 mg every day for 18 days

| Structure (SMILES) | Sexual behaviour [1] | Scrotal circumference ([1]; after a period of treatment) | Erection and semen collection ([1]; after treatment) | Testosterone concentration in serum ([1]; compared to control group) | Time to restore oestrus after administration ([2]; 10 μg/kg) | Time to restore oestrus after administration ([2]; 20 μg/kg) | Time to restore oestrus after administration ([2]; 40 μg/kg) | Time of inhibiting oestrus ([3]; low dose 0.4 mg/kg) | Time of inhibiting oestrus ([3]; middle dose 0.6 mg/kg) | Oestrus stage by vaginal smear [4] | Oestrus symptoms (vulvar redness and swelling, vaginal discharge of mucus) [4] | Days on which female mice were concentrated in oestrus [5] | Days after PMSG injection on which gilts were in oestrus [6, 7] | Number of days over which gilts were concentrated in oestrus [6, 7] | Oestrus of all gilts after administration of exogenous hormones [6, 7] | Days after PMSG injection on which gilts were in oestrus [6, 8] | Number of days over which gilts were concentrated in oestrus [6, 8] | Oestrus of all gilts after administration of exogenous hormones [6, 8] |
| --- | --- | --- | --- | --- | --- | --- | --- | --- | --- | --- | --- | --- | --- | --- | --- | --- | --- | --- |
| CC(=O)N[C@H](Cc1ccc2ccccc2c1)C(=O)N[C@H](Cc1ccc(Cl)cc1)C(=O)N[C@H](Cc1cccnc1)C(=O)N[C@@H](CO)C(=O)N[C@@H](Cc1ccc(NC(=O)[C@@H]2CC(=O)NC(=O)N2)cc1)C(=O)N[C@H](Cc1ccc(NC(N)=O)cc1)C(=O)N[C@@H](CC(C)C)C(=O)N[C@@H](CCCCNC(C)C)C(=O)N1CCC[C@H]1C(=O)N[C@H](C)C(N)=O [Degarelix] (Ac-[d2Nal][dPhe(4-Cl)][d3Pal]S[Phe(4-NH2)](Dihydroorotyl(S))[dPhe(4-NHCONH2)]L[Lys(iPr)]P[dA]-NH2) | significantly reduced | significantly reduced | abnormal erections and no semen could be collected | decreased significantly | 21.50 ± 2.45^b days | 38.83 ± 2.37^c days | 53.83 ± 3.16^d days | 7.13 ± 2.09^b days | 8.50 ± 3.54^bc days | quickly changed from proestrus to diestrus | gradually disappeared 3 days after the injection | 17th and 18th days | 3rd to the 5th day | 3 days | in oestrus within one week | – | – | – |
| C=CC[C@]1(O)CC[C@H]2[C@@H]3CCC4=CC(=O)CCC4=C3C=C[C@@]21C [altrenogest] | – | – | – | – | – | – | – | – | – | – | – | – | – | – | – | 3rd day to the 6th day | 4 days | in oestrus within one week |
